System: PNH patients with an inadequate response to eculizumab
Assay: Phase 2 study: FACIT-Fatigue Scale V4 (score range 0-52, higher = improvement)
Format: in vivo, human
Settings: for FACIT-Fatigue, mean: N=11
Description: This study utilized the validated quality of life instrument FACIT-Fatigue Scale (Version 4). This self-reporting instrument measures the severity of fatigue being experienced on a scale of 0 to 52 where a score of less than 30 represents severe fatigue and higher scores indicate improvement in fatigue. A 3-point change is clinically meaningful on this scale. A 10-point or greater change is highly significant on this scale. […] This constitutes an upper limit of the disclosure.

CC(=O)c1nn(CC(=O)N2C[C@H](F)C[C@H]2C(=O)Nc2cccc(Br)n2)c2ccc(-c3cnc(C)nc3)cc12 [Danicopan, danicopan]
FACIT-Fatigue, mean (Baseline, before danicopan, on eculizumab): 34
FACIT-Fatigue, mean (Week 24, danicopan 100-200 mg TID + eculizumab): 45
FACIT-Fatigue (Patient A, Baseline, before danicopan, on eculizumab 900 mg q14d): 33
FACIT-Fatigue (Patient A, Week 12, danicopan 150 mg TID + eculizumab 900 mg q14d): 48
FACIT-Fatigue (Patient A, Week 24, danicopan 150 mg TID + eculizumab 900 mg q14d): 52
FACIT-Fatigue (Patient B, Baseline, before danicopan, on eculizumab 1200 mg q14d): 45
FACIT-Fatigue (Patient B, Week 12, danicopan 100 mg TID + eculizumab 900 mg q14d): 49
FACIT-Fatigue (Patient B, Week 24, danicopan 100 mg TID + eculizumab 900 mg q14d): 48
FACIT-Fatigue (Patient C, Baseline, before danicopan, on eculizumab 900 mg q14d): 17
FACIT-Fatigue (Patient C, Week 12, danicopan 150 mg TID + eculizumab 900 mg q14d): 36
FACIT-Fatigue (Patient C, Week 24, danicopan 150 mg TID + eculizumab 900 mg q14d): 26
FACIT-Fatigue (Patient D, Baseline, before danicopan, on eculizumab 900 mg q14d): 18
FACIT-Fatigue (Patient D, Week 12, danicopan 150 mg TID + eculizumab 900 mg q14d): 41
FACIT-Fatigue (Patient D, Week 24, danicopan 150 mg TID + eculizumab 900 mg q14d): 41
FACIT-Fatigue (Patient E, Baseline, before danicopan, on eculizumab 1200 mg q14d): 42
FACIT-Fatigue (Patient E, Week 12, danicopan 150 mg TID + eculizumab 1200 mg q14d): 25
FACIT-Fatigue (Patient E, Week 24, danicopan 150 mg TID + eculizumab 1200 mg q14d): 38
FACIT-Fatigue score (Patient F, Baseline): 9 points
FACIT-Fatigue improvement (Patient F, Baseline to Week 24): 43 point
FACIT-Fatigue (Patient F, Baseline, before danicopan, on eculizumab 900 mg q14d): 9
FACIT-Fatigue (Patient F, Week 12, danicopan 150 mg TID + eculizumab 900 mg q14d): 48
FACIT-Fatigue score (Patient F, Week 24): 52 points
FACIT-Fatigue (Patient F, Week 24, danicopan 150 mg TID + eculizumab 900 mg q14d): 52
FACIT-Fatigue (Patient G, Baseline, before danicopan, on eculizumab 1500 mg q14d): 28
FACIT-Fatigue (Patient G, Week 12, danicopan 100 mg TID + eculizumab 1500 mg q14d): 44
FACIT-Fatigue (Patient G, Week 24, danicopan 100 mg TID + eculizumab 1500 mg q14d): 38
FACIT-Fatigue (Patient H, Baseline, before danicopan, on eculizumab 900 mg q14d): 47
FACIT-Fatigue (Patient H, Week 12, danicopan 200 mg TID + eculizumab 900 mg q14d): 49
FACIT-Fatigue (Patient H, Week 24, danicopan 200 mg TID + eculizumab 900 mg q14d): 49
FACIT-Fatigue (Patient I, Baseline, before danicopan, on eculizumab 900 mg q14d): 48
FACIT-Fatigue (Patient I, Week 12, danicopan 100 mg TID + eculizumab 900 mg q14d): 50
FACIT-Fatigue (Patient I, Week 24, danicopan 200 mg TID + eculizumab 900 mg q14d): 49
FACIT-Fatigue (Patient J, Baseline, before danicopan, on eculizumab 1200 mg q14d): 49
FACIT-Fatigue (Patient J, Week 12, danicopan 100 mg TID + eculizumab 1200 mg q14d): 51
FACIT-Fatigue (Patient J, Week 24, danicopan 200 mg TID + eculizumab 1200 mg q14d): 51
FACIT-Fatigue (Patient K, Baseline, before danicopan, on eculizumab 900 mg q14d): 33
FACIT-Fatigue (Patient K, Week 12, danicopan 100 mg TID + eculizumab 900 mg q14d): 46
FACIT-Fatigue (Patient K, Week 24, danicopan 150 mg TID + eculizumab 900 mg q14d): 50
mean increase in FACIT-Fatigue score (at 24 Weeks relative to Baseline on eculizumab): 11 points
